Each block holds one molecule with its values, some of them ahead of it.
Key:
[1] = human subjects; cited from earlier work
in vivo = conditions: rat, 50 ug/kg/d; for level at 672 h: Plasma amylin
Experimental: Amylin infusion to lean or obese, diabetic ZDF rats. Obese diabetic female ZDF rats (Charles River Laboratories) were maintained on 32% kcal/fat purified diet for approximately 6 weeks, and at 10 weeks of age were sorted into two weight-matched groups. One group was subjected to a bilateral ovariectomy (n=12) or SHAM surgery (n=12). Two weeks post-surgery rats were implanted with a single osmotic minipump (Alzet model 2ML4, Durect Corporation) delivering either vehicle or rat amylin (50 ug/kg/d) to half of each surgical group for 28 days. Lean (mean body weight 226±3 g) ZDF controls (Charles River) maintained on standard laboratory rodent chow (LM-485, 5% kcal/fat; Harlan Teklad) were sorted into weight-matched groups and implanted with a single osmotic minipump (Alzet model 2ML4, Durect Corporation) delivering either vehicle (n=9) or rat amylin (50 ug/kg/d; n=9) for 28 days. For both studies food intake and body weight were monitored weekly, and body composition was assessed at baseline and termination using NMR (Echo Medical Systems). After 28 days rats were euthanized by isoflurane overdose and cardiac blood collected.
Plasma metabolite analyses. Terminal plasma insulin (Crystal Chem Inc., Downer's Grove, Ill.), and leptin, total adiponectin and total ghrelin (Millipore, Billerica, […].) levels were measured using commercially available ELISA. Plasma glucose, triglyceride, and total cholesterol levels were measured using an Olympus bioanalyzer (Olympus America Diagnostics, Center Valley, Pa.). Plasma amylin levels were measured using an internal IEMA.

[2] = DIO rats, leptin dose alone; cited from earlier work

Molecule: CC[C@H](C)[C@H](NC(=O)[C@@H]1CCCN1C(=O)CNC(=O)[C@H](Cc1ccccc1)NC(=O)[C@H](CC(N)=O)NC(=O)[C@H](CC(N)=O)NC(=O)[C@H](CO)NC(=O)[C@H](CO)NC(=O)[C@H](Cc1c[nH]cn1)NC(=O)[C@@H](NC(=O)[C@H](CC(C)C)NC(=O)[C@H](Cc1ccccc1)NC(=O)[C@H](CC(N)=O)NC(=O)[C@H](C)NC(=O)[C@H](CC(C)C)NC(=O)[C@H](CCCNC(=N)N)NC(=O)[C@H](CCC(N)=O)NC(=O)[C@@H](NC(=O)[C@H](C)NC(=O)[C@@H]1CSSC[C@H](NC(=O)[C@@H](N)CCCCN)C(=O)N[C@@H](CC(N)=O)C(=O)N[C@@H]([C@@H](C)O)C(=O)N[C@@H](C)C(=O)N[C@@H]([C@@H](C)O)C(=O)N1)[C@@H](C)O)C(C)C)C(=O)N[C@@H](CC(C)C)C(=O)N1CCC[C@H]1C(=O)N1CCC[C@H]1C(=O)N[C@H](C(=O)N[C@@H](CC(N)=O)C(=O)N[C@H](C(=O)NCC(=O)N[C@@H](CO)C(=O)N[C@@H](CC(N)=O)C(=O)N[C@H](C(=O)N[C@@H](Cc1ccc(O)cc1)C(N)=O)[C@@H](C)O)C(C)C)[C@@H](C)O [pramlintide]
Food intake and body weight [1]: reduced food intake and body weight

level at 672 h (in vivo; ZDF (lean controls)): 3.43 ± 0.392 ng/mL
Plasma amylin (in vivo; female, ZDF (obese diabetic), 672 h): 3279 ± 430 pg/mL
level at 672 h (in vivo; female, ZDF (obese diabetic)): 3.45 ± 0.401 ng/mL
Molecule: CC(C)C[C@H](NC(=O)[C@H](CC(N)=O)NC(=O)[C@H](CC(N)=O)NC(=O)[C@H](CO)NC(=O)[C@H](CO)NC(=O)[C@H](CCCNC(=N)N)NC(=O)[C@@H](NC(=O)[C@H](CC(C)C)NC(=O)[C@H](Cc1ccccc1)NC(=O)[C@H](CC(N)=O)NC(=O)[C@H](C)NC(=O)[C@H](CC(C)C)NC(=O)[C@H](CCCNC(=N)N)NC(=O)[C@H](CCC(N)=O)NC(=O)[C@@H](NC(=O)[C@H](C)NC(=O)[C@@H]1CSSC[C@H](NC(=O)[C@@H](N)CCCCN)C(=O)N[C@@H](CC(N)=O)C(=O)N[C@@H]([C@@H](C)O)C(=O)N[C@@H](C)C(=O)N[C@@H]([C@@H](C)O)C(=O)N1)[C@@H](C)O)C(C)C)C(=O)NCC(=O)N1CCC[C@H]1C(=O)N[C@H](C(=O)N[C@@H](CC(C)C)C(=O)N1CCC[C@H]1C(=O)N1CCC[C@H]1C(=O)N[C@H](C(=O)N[C@@H](CC(N)=O)C(=O)N[C@H](C(=O)NCC(=O)N[C@@H](CO)C(=O)N[C@@H](CC(N)=O)C(=O)N[C@H](C(=O)N[C@@H](Cc1ccc(O)cc1)C(N)=O)[C@@H](C)O)C(C)C)[C@@H](C)O)C(C)C [rat amylin]

B1: leptin (protein, UniProt P50596 22-167, looked up)
Leptin: VPIHKVQDDTKTLIKTIVTRINDISHTQSVSARQRVTGLDFIPGLHPILSLSKMDQTLAVYQQILTSLPSQNVLQIAHDLENLRDLLHLLAFSKSCSLPQTRGLQKPESLDGVLEASLYSTEVVALSRLQGSLQDILQQLDLSPEC
notes: long term signal of adiposity; acts synergistically with amylin in DIO rats
Reducing body weight [2]: ineffective

Source: US20120071401A1, “AMYLIN AGONIST COMPOUNDS FOR ESTROGEN-DEFICIENT MAMMALS” (Amylin Pharamaceuticals, Inc., priority 2009, published 2012)
